{"source": "patent US9485983B2", "about": "“Use of connexin channel inhibitors to protect grafts” (Universiteit Gent, priority 2012, dated 2016)", "type_in_all_cases": "cell-based", "key": {"[1]": {"tested_on": "C6 glioma cells stably transfected with Cx43", "assay": "TUNEL control experiment with staurosporine", "conditions": "2 μM, 6 hours"}, "[2]": {"tested_on": "ECs and SMCs of saphenous veins", "assay": "TUNEL apoptosis assay on cryopreserved/thawed human saphenous veins", "conditions": "for effect on number of TUNEL-positive cells (in words) / reduction of TUNEL-positive cell death counts (fraction): saphenous veins; for Protection relative to total number of cells (%) / Protection relative to total number of dead cells (%): Veins, Gap27 200 μM; for reduction of TUNEL-positive cell death counts (fraction): 200 μM during cryopreservation, thawing and DMSO washout", "source_text": "(§1) Tissue samples of human femoral artery and saphenous vein were obtained from deceased donors (age: 45±1.7 years) according to a protocol that was approved by the ethical committee of the University Hospital Ghent, Belgium. […] Exclusion criteria were: presence of ulcers, calcific atheromas, rupture of intima or media, traction lesions due to prelevation in arteries; signs of phlebitis, atheromatosis, parietal abnormalities, or lesions of intima in veins. The vessels were placed in HBSS-HEPES and prior to cryopreservation, DMSO (15%) was added. […] Grafts were cryopreserved at 1° C./minute in a −80° C. freezer and, after two weeks, stored for at least another two weeks in a liquid nitrogen container (−196° C.).\n(§2) For vessel analysis and cell death studies, tissues were thawed in a 37° C. water bath and kept on ice before the next steps. DMSO was then progressively washed out by a stepwise reduction of the DMSO concentration in the HBSS-HEPES solution. To that purpose, the blood vessels remained for 4 minutes in HBSS-HEPES solution with, respectively, 10%, 5%, 2.5% and 0% DMSO. In Gap27-treated vessels, the peptide (200 μM) was present during DMSO washout.\n(§3) After DMSO washout, vessels were embedded in paraffin. To this purpose, blood vessels were transferred to a neutral buffered 4% formalin solution for fixation during 24 hours and were then embedded in paraffin. Paraffin-embedded vessel specimens were cut into […] serial sections along a transverse plane and were then stained with hematoxylin and eosin for general inspection, immunostained for connexins to establish the expression of various connexin types in the blood vessels or stained for cell death (apoptosis) making use of in situ terminal TdT-mediated dUTP nick end-labeling (TUNEL) with the In Situ Cell Death Detection Kit (Roche, Vilvoorde, Belgium). After any of these staining procedures, images were taken on a Nikon TE300 inverted microscope using a ×10 or ×20 objective and equipped with a Nikon DS-Ri1 cooled color CCD camera (Nikon Belux, Brussels, Belgium).\n(§4) Embedded artery or vein sections were deparaffinized, rehydrated through graded alcohol, and permeabilized with 0.1% TRITON® X-100 at room temperature (8 minutes incubation). Slides were rinsed twice in a phosphate-buffered saline (PBS). Apoptosis was detected through in situ terminal deoxynucleotidyl transferase (TdT)-mediated deoxyuridine triphosphate (dUTP) nick end-labeling (TUNEL), using the In Situ Cell Death Detection Kit (Roche, Vilvoorde, Belgium). Slides were incubated with the TUNEL reaction mixture containing TdT and fluorescein-dUTP for 1 hour at 37° C.; thereafter, they were rinsed three times in PBS and mounted as described for immunostaining. […] TUNEL-stained blood vessel tissue sections were examined by epifluorescence microscopy as described for immunostaining. Four areas from each slide were examined and five slides per blood vessel were analyzed. The number of TUNEL-positive cells is given as a percentage of the total number of cells quantified from DAPI-positive counts."}, "[3]": {"tested_on": "ECs and SMCs of femoral arteries", "assay": "TUNEL apoptosis assay on cryopreserved/thawed human femoral arteries", "conditions": "for effect on number of TUNEL-positive cells (in words) / reduction of TUNEL-positive cell death counts (fraction): femoral arteries; for Protection relative to total number of cells (%) / Protection relative to total number of dead cells (%): Arteries, Gap27 200 μM; for reduction of TUNEL-positive cell death counts (fraction): 200 μM during cryopreservation, thawing and DMSO washout", "source_text": "as §1, §2, §3, §4"}, "bovine oocytes [4]": {"tested_on": "bovine oocytes", "assay": "Cleavage rate of vitrified/thawed COCs", "conditions": "Gap27-treated vitrified/thawed COCs; after 48 hours in culture", "protocol": "All procedures used were in accordance with the guidance principals for care and use of laboratory animals of the Laboratory Animal Ethical Commission of Ghent University. Bovine cumulus-oocyte complexes (COCs) were aspirated from ovaries collected at a local slaughterhouse. Immature COCs were recovered from the follicular fluid, washed two times in HEPES-TALP (see below under the heading “Pharmacological agents and solutions” of Materials and Methods), and matured for 22 hours in groups of 60 in […] of modified bicarbonate-buffered TCM199 (Gibco BRL, Life Technologies) supplemented with 20% heat-inactivated fetal calf serum (FCS; Sigma-Aldrich) at 38.5° C. in a humidified 5% CO2 incubator. Vitrification was performed in two steps: an equilibration (EQ) and a vitrification step (VS). Equilibration solution was composed of M199/Hanks/HEPES supplemented with 20% fetal calf serum (FCS)+7.5% ethylene glycol+7.5% DMSO. The vitrification solution contained: M199/Hanks/HEPES supplemented with 20% FCS+15% ethylene glycol, 15% DMSO and 0.5 M sucrose. […]\nTo determine the cleavage rate, zygotes were washed and placed in groups of 30 in […] droplets of synthetic oviduct fluid (composition see below under “Pharmacological agents and solutions”) supplemented with 5% FCS and cultured at 38.5° C. in 5% CO2, 5% O2, and 90% N2; cleavage rate was determined after 48 hours in culture."}, "[5]": {"tested_on": "cumulus cells of bovine COCs", "assay": "TUNEL cell death of COCs after simulated transportation", "protocol": "COCs were fixed in neutral buffered 4% formalin solution after thawing. Fixed COCs were permeabilized with 0.1% TRITON® X-100 at room temperature (8-minute incubation). COCs were rinsed twice in a phosphate-buffered saline (PBS, see Pharmacological agents and solutions). Cell death was detected by in situ terminal deoxynucleotidyl transferase (TdT)-mediated deoxyuridine triphosphate (dUTP) nick end-labeling (TUNEL), using a commercial In Situ Cell Death Detection Kit (Roche, Vilvoorde, Belgium). COCs were incubated with the TUNEL reaction mixture containing TdT and fluorescein-dUTP for 1 hour at 37° C.; thereafter, they were rinsed three times in PBS and mounted with an antifade solution containing 4′,6-diamidino-2-phenylindole (DAPI) (Vectashield, Lab Consult) for nuclear staining. Slides were examined by epifluorescence microscopy using a Nikon TE300 inverted microscope with a ×10 objective and equipped with a Nikon DS-Ri1 cooled color CCD camera (Nikon Belux, Brussels, Belgium).\n[…] This was performed with or without Gap27 peptide (200 μM) present in the transportation phase medium. Afterward, cell death was evaluated via TUNEL assays as described before.\nTesting was performed as to whether Gap27 could improve COC viability upon inclusion in the media during a simulated transportation phase (5 hours total duration, see Materials and Methods) applied after the vitrification/thawing procedure. In these experiments, vitrification/thawing were done under control conditions and Gap27 was only present in the transportation medium."}, "[6]": {"tested_on": "ECs and SMCs of saphenous veins", "assay": "TUNEL apoptosis assay on cryopreserved/thawed human saphenous veins", "conditions": "saphenous vein; Gap27 during cryopreservation/thawing only"}, "[7]": {"tested_on": "ECs and SMCs of femoral arteries", "assay": "TUNEL apoptosis assay on cryopreserved/thawed human femoral arteries", "conditions": "femoral artery; Gap27 during cryopreservation/thawing only"}, "bovine oocytes [8]": {"tested_on": "bovine oocytes", "assay": "Fertilization rate of vitrified/thawed COCs", "conditions": "COCs vitrified/thawed in the presence of Gap27", "protocol": "All procedures used were in accordance with the guidance principals for care and use of laboratory animals of the Laboratory Animal Ethical Commission of Ghent University. Bovine cumulus-oocyte complexes (COCs) were aspirated from ovaries collected at a local slaughterhouse. Immature COCs were recovered from the follicular fluid, washed two times in HEPES-TALP (see below under the heading “Pharmacological agents and solutions” of Materials and Methods), and matured for 22 hours in groups of 60 in […] of modified bicarbonate-buffered TCM199 (Gibco BRL, Life Technologies) supplemented with 20% heat-inactivated fetal calf serum (FCS; Sigma-Aldrich) at 38.5° C. in a humidified 5% CO2 incubator. Vitrification was performed in two steps: an equilibration (EQ) and a vitrification step (VS). Equilibration solution was composed of M199/Hanks/HEPES supplemented with 20% fetal calf serum (FCS)+7.5% ethylene glycol+7.5% DMSO. The vitrification solution contained: M199/Hanks/HEPES supplemented with 20% FCS+15% ethylene glycol, 15% DMSO and 0.5 M sucrose. The COCs were washed by transferring them sequentially in three drops of 100 μl EQ solution (3 minutes residence in the first two drops and 6 minutes in the last drop) and then placed stepwise in five 100 μl drops VS solution (5 seconds in each drop except for the fifth that lasted 10 seconds). […]"}, "[9]": {"tested_on": "bovine cumulus-oocyte complexes (COCs)", "assay": "TUNEL cell death assay on COCs after vitrification/thawing", "method": "Bovine cumulus-oocyte complexes (COCs) were aspirated from ovaries collected at a local slaughterhouse. Immature COCs were recovered from the follicular fluid, washed two times in HEPES-TALP (see below under the heading “Pharmacological agents and solutions” of Materials and Methods), and matured for 22 hours in groups of 60 in 500 mL of modified bicarbonate-buffered TCM199 (Gibco BRL, Life Technologies) supplemented with 20% heat-inactivated fetal calf serum (FCS; Sigma-Aldrich) at 38.5° C. in a humidified 5% CO2 incubator. Vitrification was performed in two steps: an equilibration (EQ) and a vitrification step (VS). Equilibration solution was composed of M199/Hanks/HEPES supplemented with 20% fetal calf serum (FCS)+7.5% ethylene glycol+7.5% DMSO. The vitrification solution contained: M199/Hanks/HEPES supplemented with 20% FCS+15% ethylene glycol, 15% DMSO and 0.5 M sucrose. The COCs were washed by transferring them sequentially in three drops of 100 μl EQ solution (3 minutes residence in the first two drops and 6 minutes in the last drop) and then placed stepwise in five 100 μl drops VS solution (5 seconds in each drop except for the fifth that lasted 10 seconds). The connexin channel inhibitor Gap27 was added to the fifth drop of VS solution at a final concentration of 200 μM (the Gap27 sequence is given below under the heading “Pharmacological agents and solutions” of Materials and Methods). The control condition consisted of a drop solution without any added Gap27. COCs were placed in a manufactured cryotop and transferred immediately to liquid nitrogen (−196° C.).\nAfter 24 hours' storage in liquid nitrogen, the COCs were thawed by transferring them to a warming solution at 37° C. composed of M199/Hanks/HEPES+20% FCS+1.25 M sucrose for 1 minute. This was followed by a three-step wash-out of the hyperosmolar sucrose (reduced from 1.25 M to 0.62, 0.31 and 0 M, respectively; duration of each wash was 3 minutes, 5 minutes and 5 minutes, respectively). In the Gap27 treatment condition, the peptide concentration was gradually diluted over these three washing steps, halving its concentration with each transfer step (reduced from 200 μM in cryopreservation solution to 100, 50 and 0 μM, respectively). In the text that follows, “thawing” denotes the combination of warming and wash out of the hyperosmolarity.\nCOCs were fixed in neutral buffered 4% formalin solution after thawing. Fixed COCs were permeabilized with 0.1% TRITON® X-100 at room temperature (8-minute incubation). […] Cell death was detected by in situ terminal deoxynucleotidyl transferase (TdT)-mediated deoxyuridine triphosphate (dUTP) nick end-labeling (TUNEL), using a commercial In Situ Cell Death Detection Kit (Roche, Vilvoorde, Belgium). […]"}, "[10]": {"conditions": "simulated transportation at 0° C., intact COCs"}, "[11]": {"conditions": "simulated transportation at 37° C., cumulus reduced to 1-5 cell layers"}, "[12]": {"conditions": "simulated transportation at 37° C., intact cumulus cloud"}, "[13]": {"conditions": "cumulus cells, Gap27 during vitrification/thawing"}}, "note": "“Also recorded” adds a separate entry of the source.", "data": [{"molecule": "CN[C@@H]1C[C@H]2O[C@@](C)([C@@H]1OC)n1c3ccccc3c3c4c(c5c6ccccc6n2c5c31)C(=O)NC4", "note": "[staurosporine, Staurosporine]", "values": [{"measurement": "TUNEL positivity (in words)", "setting": "[1]", "value": "massive TUNEL positivity"}]}, {"molecule": "Gap27 with a scrambled peptide sequence: scrambled Gap27 control peptide TFEPIRISITK [reference compound]", "values": [{"measurement": "effect on number of TUNEL-positive cells (in words)", "setting": "[2]; ECs and SMCs", "value": "no significant effects"}, {"measurement": "effect on number of TUNEL-positive cells (in words)", "setting": "[3]; ECs and SMCs", "value": "no significant effects"}]}, {"molecule": "Gap27: connexin mimetic peptide, connexin channel inhibitor, SRPTEKTIFII (SEQ ID NO:2) (listed as Homo sapiens)", "values": [{"measurement": "cleavage rate", "setting": "bovine oocytes [4]", "value": 28, "unit": "%"}, {"measurement": "Protection relative to total number of cells (%)", "setting": "[2]; EC", "value": "12 ± 4 (n = 13) %"}, {"measurement": "Protection relative to total number of dead cells (%)", "setting": "[2]; EC", "value": "51 ± 8 (n = 13) %"}, {"measurement": "Protection relative to total number of cells (%)", "setting": "[2]; SMC", "value": "6 ± 2 (n = 13) %"}, {"measurement": "Protection relative to total number of dead cells (%)", "setting": "[2]; SMC", "value": "71 ± 6 (n = 13) %"}, {"measurement": "effect on cell death (in words)", "setting": "[2]; saphenous vein, ECs and SMCs, Gap27 during DMSO washout only", "value": "slightly (but non-significantly) reduced"}, {"measurement": "effect on number of TUNEL-positive cells (in words)", "setting": "[2]; ECs and SMCs", "value": "significantly reduced"}, {"measurement": "reduction of TUNEL-positive cell death counts (fraction)", "setting": "[2]; ECs", "value": "½"}, {"measurement": "reduction of TUNEL-positive cell death counts (fraction)", "setting": "[2]; SMCs", "value": "more than ½"}, {"measurement": "Protection relative to total number of cells (%)", "setting": "[3]; EC", "value": "11 ± 4 (n = 11) %"}, {"measurement": "Protection relative to total number of dead cells (%)", "setting": "[3]; EC", "value": "32 ± 8 (n = 11) %"}, {"measurement": "Protection relative to total number of cells (%)", "setting": "[3]; SMC", "value": "6 ± 3 (n = 11) %"}, {"measurement": "Protection relative to total number of dead cells (%)", "setting": "[3]; SMC", "value": "73 ± 7 (n = 11) %"}, {"measurement": "effect on number of TUNEL-positive cells (in words)", "setting": "[3]; ECs and SMCs", "value": "visibly reduced; also recorded: significantly reduced"}, {"measurement": "reduction of TUNEL-positive cell death counts (fraction)", "setting": "[3]; intimal layer (ECs)", "value": "more than ⅓"}, {"measurement": "reduction of TUNEL-positive cell death counts (fraction)", "setting": "[3]; medial layer (SMCs)", "value": "more than ⅔"}, {"measurement": "effect on cell death (in words)", "setting": "[3]; femoral artery, ECs and SMCs, Gap27 during DMSO washout only", "value": "slightly (but non-significantly) reduced"}, {"measurement": "cell death of cumulus cells", "setting": "[5]; simulated transportation 5 hours at 37° C., intact cumulus cloud, Gap27 200 μM in transportation medium", "value": 13.8, "unit": "%"}, {"measurement": "cell death of cumulus cells", "setting": "[5]; [10]", "value": 2.82, "unit": "%"}, {"measurement": "reduction of the dead cell mass", "setting": "[5]; [10]", "value": "~53", "unit": "%"}, {"measurement": "rescue effect of the total cell mass", "setting": "[5]; [10]", "value": "~3.1", "unit": "%"}, {"measurement": "cell death of cumulus cells", "setting": "[5]; simulated transportation at 37° C., cumulus cell layer reduced to 1-5 cell layers", "value": 7.54, "unit": "%"}, {"measurement": "reduction of the dead cell mass", "setting": "[5]; [11]", "value": "~54", "unit": "%"}, {"measurement": "rescue effect of the total cell mass", "setting": "[5]; [11]", "value": "~8.7", "unit": "%"}, {"measurement": "reduction of the mass of dead cells", "setting": "[5]; [12]", "value": "~32", "unit": "%"}, {"measurement": "rescue effect relative to the total mass of cells", "setting": "[5]; [12]", "value": "~6.5", "unit": "%"}, {"measurement": "effect on cell death (in words)", "setting": "[6]", "value": "larger and statistically significant protective effects"}, {"measurement": "effect on cell death (in words)", "setting": "[7]", "value": "larger and statistically significant protective effects"}, {"measurement": "fertilization rate", "setting": "bovine oocytes [8]", "value": 41.2, "unit": "%"}, {"measurement": "cell death (TUNEL assay) of cumulus cells", "setting": "[9]; Gap27 200 μM during vitrification/thawing", "value": 1.68, "unit": "%"}, {"measurement": "cell death of the oocytes (in words)", "setting": "[9]; after vitrification/thawing, whatever the treatment", "value": "No cell death of the oocytes"}, {"measurement": "cell mass rescued (effect size relative to the total number of cells)", "setting": "[9]; [13]", "value": "~2.4", "unit": "%"}, {"measurement": "reduction relative to the total number of dead cells in control", "setting": "[9]; [13]", "value": "~59", "unit": "%"}]}]}
